Values quoted from earlier work, collected in PubChem BioAssay AID1259409 (Chemical Carcinogenesis Research Information System (CCRIS), 2018).

System: rodent chemically induced tumor inhibition, incidence and multiplicity
Assay: CCRIS tumor inhibitor studies
Conditions: Carcinogen: DIETHYLNITROSAMINE, 55-18-5, N-METHYL-N-NITROSOUREA, 684-93-5, N-BUTYL-N-(4-HYDROXYBUTYL)NITROSAMINE, 3817-11-6, DIMETHY, Carcinogen: DIETHYLNITROSAMINE, 55-18-5, N-METHYL-N-NITROSOUREA, 684-93-5, N-BUTYL-N-(4-HYDROXYBUTYL)NITROSAMINE, 3817-11-6, DIMETHY, Dose [Inhibitor]: 0, Route [Inhibitor]: ORAL, Species: RAT, Strain/Sex: F344/MALE, Dose [Carcinogen]: 100 MG/KG BW DEN ONCE FOLLOWED BY 20 MG/KG BW MNU 4 TIMES AND 0.05% BBN IN DRINKING WATER DURING FIRST 2 WK THEN 40 MG/K, Promoter: NONE USED

For `CCOC1=C(O)C(=O)O[C@@H]1[C@@H](O)CO`, the “tumour outcome (control, treated, inhibition, significance)” value (1% IN THE DIET FOR 24 WK BEGINNING 1 DAY POST CARCINOGEN TREATMENT (STUDY DURATION: 28 WK), Target Tissue: Type of Lesion: URINARY BLADDER: PAPILLOMA) is listed as 7%, 7%, 0%, not significant, the “tumour outcome (control, treated, inhibition, significance)” value (1% IN THE DIET FOR 30 D BEGINNING 1 DAY PRIOR TO CARCINOGEN TREATMENT (STUDY DURATION: 28 WK), Target Tissue: Type of Lesion: LARGE INTESTINE: ADENOMA) is listed as 27%, 33%, -22%, not significant and the “tumour outcome (control, treated, inhibition, significance)” value (1% IN THE DIET FOR 30 D BEGINNING 1 DAY PRIOR TO CARCINOGEN TREATMENT (STUDY DURATION: 28 WK), Target Tissue: Type of Lesion: LARGE INTESTINE: CARCINOMA) is listed as 7%, 40%, -471%, not significant. The “tumour outcome (control, treated, inhibition, significance)” value (1% IN THE DIET FOR 30 D BEGINNING 1 DAY PRIOR TO CARCINOGEN TREATMENT (STUDY DURATION: 28 WK), Target Tissue: Type of Lesion: SMALL INTESTINE: ADENOMA) was 33%, 7%, 79%, not significant, the “tumour outcome (control, treated, inhibition, significance)” value (1% IN THE DIET FOR 30 D BEGINNING 1 DAY PRIOR TO CARCINOGEN TREATMENT (STUDY DURATION: 28 WK), Target Tissue: Type of Lesion: SMALL INTESTINE: CARCINOMA) was 7%, 7%, 0%, not significant and the “tumour outcome (control, treated, inhibition, significance)” value (1% IN THE DIET FOR 30 D BEGINNING 1 DAY PRIOR TO CARCINOGEN TREATMENT (STUDY DURATION: 28 WK), Target Tissue: Type of Lesion: THYROID: CARCINOMA) was 7%, 0%, 100%, not significant. The “tumour outcome (control, treated, inhibition, significance)” value (1% IN THE DIET FOR 30 DAYS BEGINNING 1 DAY PRIOR TO CARCINOGEN TREATMENT (STUDY DURATION: 28 WK), Target Tissue: Type of Lesion: URINARY BLADDER: CARCINOMA) was 7%, 7%, 0%, not significant and the “tumour outcome (control, treated, inhibition, significance)” value (1% IN THE DRINKING WATER FOR 24 WK BEGINNING 1 DAY POST CARCINOGEN TREATMENT (STUDY DURATION: 28 WK), Target Tissue: Type of Lesion: SMALL INTESTINE: CARCINOMA) was 7%, 0%, 100%, not significant.
